pIC50: −log10 of the molar value. One block for each compound: values may come before it.
Legend:
[1] = test system: A549 Human NSCLC Cell Lines; experiment: Relative cell numbers of A549 cells (wild type, shControl, Axl/Mer knockdown) after 48 hours of drug; type: cell-based; conditions: for pIC50: 48 hours, relative cell number
[2] = test system: A549 Human NSCLC Cell Lines; experiment: BrdU incorporation ELISA, relative cell proliferation of A549 cells, 48 hours; type: cell-based; conditions: for sensitivity of A549 cells with inhibition of Mer expression: A549 Mer1-G8 knockdown, BrdU; for pIC50: BrdU assay
Protocol: The relative cell proliferation was determined via a BrdU incorporation ELISA. IC50 values were determined by non-linear regression of data from at least three independent experiments performed in triplicate (see Table 3).

G12 astrocytoma cells = experiment: MTT assay, chemosensitivity of G12 astrocytoma control and knockdown cells; type: cell-based
Protocol: (§1) G12 control (shControl) and knockdown cells (shMer1 and shMer4; shAxl8 and shAxl9) were plated in 96-well plates at concentrations determined to allow linear growth over 3 days: A) cells were treated with varying concentrations of temozolomide and relative cell number was assessed 48 h after treatment by colorimetric assessment/MTT assay. Error bars denote experiments performed in triplicate. A172 control (shControl) and knockdown cells (shMer1A and shMer1B; shAxl8 and shAxl9) were plated in 96-well plates at concentrations determined to allow linear growth over 3 days: B) cells were treated with varying concentrations of carboplatin and relative cell number was assessed 48 h after treatment by colorimetric assessment/MTT assay. Error bars represent three independent experiments performed in triplicate.
(§2) Table 4 provides the IC50 with 95% CI for G12 and A172 control and Mer and Axl knockdown cells, in response to chemotherapy. In Table 4, ‘NR’ indicates an IC50 was never reached. ‘IND’ represents that that CI was indeterminate. The IC50 for each knockdown line was compared to the control line, and an ‘*’ represents that the comparison is statistically different while an ‘NS’ represents that there was no statistically significant difference because either the CI was indeterminate (as with the G12 shAxl9 line treated with carboplatin) or it overlapped with the shControl CI.

A172 glioblastoma cells = experiment: MTT assay, chemosensitivity of A172 control and knockdown cells; type: cell-based
Protocol: as §1, §2

[3] = test system: 697 Human B-ALL Cell Lines; experiment: MTT assay, chemosensitivity of 697 cells (wild type, shControl, Mer knockdown), 48 hours; type: cell-based
Protocol: Inhibition of Mer expression results in increased chemosensitivity in 697 cells. […] IC50 values were determined by non-linear regression of data from at least three independent experiments performed in triplicate, as shown in Table 1.

REH cells [4] = experiment: MTT assay, REH cells (wild type, shControl, Mer knockdown) treated with methotrexate for 48 hours; type: cell-based; conditions: REH shMer4A, shMer4B vs shControl
Text: Inhibition of Mer expression results in increased chemosensitivity of REH cells. […] Statistical differences versus shControl are indicated by non-overlapping confidence intervals (95% CI). No significant difference between wild type and shControl was observed.

REH cells [5] = experiment: Flow cytometry of apoptotic and dead cells (YO-PRO-1 / propidium iodide), REH cells; type: cell-based; conditions: REH shMer4A, shMer4B vs shControl, 48 hours
Text: Apoptotic and dead cells were identified by flow cytometric analysis of cells stained with YO-PRO®-1 and propidium iodide: A) representative flow cytometry profiles. The percentage of apoptotic cells is indicated in the lower-right quadrant. The combined percentage of cells in the two upper quadrants indicates the fraction of dead cells.
Apoptotic and dead cells were identified by flow cytometric analysis of cells stained with YO-PRO®-1 and propidium iodide: A) representative flow cytometry profiles. The percentage of apoptotic cells is indicated in the lower-right quadrant. The combined percentage of cells in the two upper quadrants indicates the fraction of dead cells. B) mean values and standard errors derived from 3 independent experiments. Results were tested for significance using two-way repeated measures ANOVA and Bonferroni posttests to compare shControl and Mer knockdown cells at equivalent drug concentrations. Significant differences in apoptotic cell populations are indicated by asterisks (* p<0.01, ** p<0.001). Significant differences in the number of dead cells were also observed († p<0.01, ‡‡ p<0.001). No significant differences between wild type and shControl cells were observed.

697 cells = experiment: Flow cytometry of apoptotic and dead cells (YO-PRO-1 / propidium iodide), 697 cells; type: cell-based, human; conditions: 697 shMer1A vs shControl, 48 hours
Protocol: Apoptotic and dead cells were identified by flow cytometric analysis of cells stained with YO-PRO®-1 and propidium iodide: A) representative flow cytometry profiles; B) mean values and standard errors derived from 3 independent experiments.
Cultures of shControl or shMer1A 697 cells were exposed to 6-MP, VP-16, or medium only for 48 hours: A) Apoptotic and dead cells were identified by flow cytometric analysis of cells stained with YO-PRO®-1 and propidium iodide: Representative flow cytometry profiles; B) the percentages of apoptotic and dead cells are indicated in lower-right and upper-right quadrants, respectively. Mean values and standard errors derived from 3 independent experiments. Results were tested for significance using two-way ANOVA and Bonferroni posttests to compare shControl and shMer1A cells at equivalent drug concentrations.

[6] = 697 shMer1A (Mer knockdown) cells
[7] = 697 shMer1B (Mer knockdown) cells

SMILES: N.N.O=C([O-])C1(C(=O)[O-])CCC1.[Pt+2] [Carbo, carboplatin]
- pIC50 ([1]; A549 Wild Type): < 3.80
- pIC50 ([1]; A549 shAxl8-G5 (Axl knockdown)): 5.04
- pIC50 ([1]; A549 shControl): < 3.80
- pIC50 ([1]; A549 shMer1-G8 (Mer knockdown)): 4.03
- sensitivity of A549 cells with inhibition of Mer expression ([2]; 48 hours): increased sensitivity
- pIC50 ([2]; A549 Wild Type, 48 hours): 4.70
- pIC50 ([2]; A549 shAxl8-G5, 48 hours): 4.77
- pIC50 ([2]; A549 shAxl9-D3, 48 hours): 4.82
- pIC50 ([2]; A549 shControl, 48 hours): 4.81
- pIC50 ([2]; A549 shMer1-G8, 48 hours): 5.14
- pIC50 (G12 astrocytoma cells; G12 shAxl8, 48 h, MTT): 6.55
- pIC50 (G12 astrocytoma cells; G12 shAxl9, 48 h, MTT): 6.70
- pIC50 (G12 astrocytoma cells; G12 shControl, 48 h, MTT): 4.32
- pIC50 (G12 astrocytoma cells; G12 shMer1, 48 h, MTT): 6.11
- pIC50 (G12 astrocytoma cells; G12 shMer4, 48 h, MTT): 6.72
- pIC50 (A172 glioblastoma cells; A172 shAxl8, 48 h, MTT): 7.46
- pIC50 (A172 glioblastoma cells; A172 shAxl9, 48 h, MTT): 7.12
- pIC50 (A172 glioblastoma cells; A172 shMer1A, 48 h, MTT): 6.09
- pIC50 (A172 glioblastoma cells; A172 shMer1B, 48 h, MTT): 6.68

SMILES: CN(Cc1cnc2nc(N)nc(N)c2n1)c1ccc(C(=O)N[C@@H](CCC(=O)O)C(=O)O)cc1 [MTX, methotrexate]
- pIC50 ([3]; 697 Wild Type cells): 7.56
- pIC50 ([3]; 697 shControl cells): 7.56
- pIC50 [3, 6]: 7.91
- pIC50 [3, 7]: 7.93
- IC50 values in Mer knockdown cells in comparison to shControl cells (REH cells [4]): significantly lower IC50 values
- apoptotic cell death with Mer knockdown (REH cells [5]): increased apoptotic cell death

- pIC50 (G12 astrocytoma cells; G12 shAxl8, MTT): 9.51
- pIC50 (G12 astrocytoma cells; G12 shAxl9, MTT): 9.70
- pIC50 (G12 astrocytoma cells; G12 shControl, MTT): 8.79
- pIC50 (G12 astrocytoma cells; G12 shMer1, MTT): 9.13
- pIC50 (G12 astrocytoma cells; G12 shMer4, MTT): 9.66
- pIC50 (A172 glioblastoma cells; Homo sapiens, A 172, A172 shAxl8, MTT): 9.17
- pIC50 (A172 glioblastoma cells; Homo sapiens, A 172, A172 shAxl9, MTT): 8.53
- pIC50 (A172 glioblastoma cells; Homo sapiens, A 172, A172 shControl, MTT): 8.60
- pIC50 (A172 glioblastoma cells; Homo sapiens, A 172, A172 shMer1A, MTT): 8.90
- pIC50 (A172 glioblastoma cells; Homo sapiens, A 172, A172 shMer1B, MTT): 9.27
SMILES: CC[C@]1(O)C[C@H]2CN(CCc3c([nH]c4ccccc34)[C@@](C(=O)OC)(c3cc4c(cc3OC)N(C=O)[C@H]3[C@@](O)(C(=O)OC)[C@H](OC(C)=O)[C@]5(CC)C=CCN6CC[C@]43[C@@H]65)C2)C1 [VCR, vincristine]
- pIC50 ([3]; 697 Wild Type cells): 8.98
- pIC50 ([3]; 697 shControl cells): 8.99
- pIC50 [3, 6]: 9.27
- pIC50 [3, 7]: 9.34

- pIC50 ([1]; Homo sapiens, A549, 48 h, A549 Wild Type): 5.66
- pIC50 ([1]; Homo sapiens, A549, 48 h, A549 shAxl8-G5 (Axl knockdown)): 6.48
- pIC50 ([1]; Homo sapiens, A549, 48 h, A549 shAxl9-D3 (Axl knockdown)): 6.00
- pIC50 ([1]; Homo sapiens, A549, 48 h, A549 shControl): 5.48
- pIC50 ([1]; Homo sapiens, A549, 48 h, A549 shMer1-G8 (Mer knockdown)): 5.42
- pIC50 ([2]; Homo sapiens, A549, 48 h, A549 Wild Type, 48 hours): 6.14
- pIC50 ([2]; Homo sapiens, A549, 48 h, A549 shAxl8-G5, 48 hours): 5.85
- pIC50 ([2]; Homo sapiens, A549, 48 h, A549 shAxl9-D3, 48 hours): 6.23
- pIC50 ([2]; Homo sapiens, A549, 48 h, A549 shControl, 48 hours): 6.04
- pIC50 ([2]; Homo sapiens, A549, 48 h, A549 shMer1-G8, 48 hours): 6.43
SMILES: COc1cc([C@@H]2c3cc4c(cc3[C@@H](O[C@@H]3O[C@@H]5CO[C@@H](C)O[C@H]5[C@H](O)[C@H]3O)[C@H]3COC(=O)[C@H]23)OCO4)cc(OC)c1O [VP-16, etoposide]
- pIC50 ([3]; 697 Wild Type cells): 6.74
- pIC50 ([3]; 697 shControl cells): 6.76
- pIC50 [3, 6]: 7.27
- pIC50 [3, 7]: 7.22
- sensitivity of the shAxl9-D3 Axl knockdown clone ([1]; A549 shAxl9-D3, 48 hours): more sensitive
- sensitivity of A549 cells with inhibition of Mer expression ([2]; 48 hours): increased sensitivity
- induction of apoptotic cell death with Mer knockdown (697 cells): increased induction of apoptotic cell death

— US20120230991A1, “METHODS AND COMPOUNDS FOR ENHANCING ANTI-CANCER THERAPY” (priority 2008, published 2012)
